Biological target: T1, His-hMAGL (recombinant polyhistidine tagged human MAGL protein) (Homo sapiens, UniProt Q99685)
T1 construct: polyhistidine (His) (N); made in house; host or cells: E. coli BL21(DE3)
T1 sequence (Q99685 1-303): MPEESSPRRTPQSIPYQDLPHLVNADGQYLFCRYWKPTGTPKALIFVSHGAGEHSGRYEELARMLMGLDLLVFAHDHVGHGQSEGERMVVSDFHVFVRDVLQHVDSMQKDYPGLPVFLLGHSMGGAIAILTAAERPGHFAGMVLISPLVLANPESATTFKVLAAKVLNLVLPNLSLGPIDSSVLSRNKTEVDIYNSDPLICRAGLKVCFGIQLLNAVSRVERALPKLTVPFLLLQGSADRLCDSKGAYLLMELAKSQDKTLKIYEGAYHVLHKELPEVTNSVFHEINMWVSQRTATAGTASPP
Assay: Measurement of MAGL inhibitory activity (RapidFire-mass spectrometry of arachidonic acid produced from 2-arachidonylglycerol)
Assay type: biochemical
Conditions: test compound 10 μM, His-hMAGL, substrate 2-arachidonylglycerol, 60 min preincubation; for inhibition at 10 µM: read-out: % inhibition (10 μM)
How it was run: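 After quenching with acetonitrile containing 3 μM arachidonic acid-d8, the arachidonic acid formed was measured by online SPE RapidFire-MS/MS in negative SRM mode and corrected against the d8 standard. Inhibition (%) was calculated relative to compound-free and enzyme-free groups.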

Row | inhibition at 10 µM [%] | SMILES | further results
1 | – | CC1(C2CCN(C(=O)[C@H]3C[C@]4(COC(=O)N4)C3)CC2)Cc2cc(C(F)(F)F)ccc2O1 (some centres unmarked) [Example 68, (2s,4s)-2-((4-(2-methyl-5-(trifluoromethyl)-2,3-dihydro-1-benzofuran-2-yl)piperidin-1-yl)carbonyl)-7-oxa-5-azaspiro[3.4]octan-6-one] | % inhibition (10 μM) (10 µM): 100%
2 | – | CC1(C2CCN(C(=O)[C@H]3C[C@]4(COC(=O)N4)C3)CC2)Cc2cc(C(F)(F)F)ccc2O1 (some centres unmarked) [Example 69, (2s,4s)-2-((4-(2-methyl-5-(trifluoromethyl)-2,3-dihydro-1-benzofuran-2-yl)piperidin-1-yl)carbonyl)-7-oxa-5-azaspiro[3.4]octan-6-one] | % inhibition (10 μM) (10 µM): 101%
3 | – | CC1(C2CCN(C(=O)[C@H]3C[C@]4(COC(=O)N4)C3)CC2)Cc2ccc(C(F)(F)F)cc2O1 (some centres unmarked) [Example 70, (2s,4s)-2-((4-(2-methyl-6-(trifluoromethyl)-2,3-dihydro-1-benzofuran-2-yl)piperidin-1-yl)carbonyl)-7-oxa-5-azaspiro[3.4]octan-6-one] | % inhibition (10 μM) (10 µM): 101%
4 | – | CC1(C2CCN(C(=O)[C@H]3C[C@]4(COC(=O)N4)C3)CC2)Cc2ccc(C(F)(F)F)cc2O1 (some centres unmarked) [Example 71, (2s,4s)-2-((4-(2-methyl-6-(trifluoromethyl)-2,3-dihydro-1-benzofuran-2-yl)piperidin-1-yl)carbonyl)-7-oxa-5-azaspiro[3.4]octan-6-one] | % inhibition (10 μM) (10 µM): 101%
5 | 101 | Cc1cc(OCC2CN(C(=O)[C@H]3C[C@]4(COC(=O)N4)C3)C2)c(F)cc1C(F)(F)F [Example 72, (2s,4s)-2-((3-((2-fluoro-5-methyl-4-(trifluoromethyl)phenoxy)methyl)azetidin-1-yl)carbonyl)-7-oxa-5-azaspiro[3.4]octan-6-one] | –
6 | 100 | CC(Oc1ccc(F)cc1C(F)(F)F)C1CCN(C(=O)[C@H]2C[C@]3(CCC(=O)N3)C2)CC1 (some centres unmarked) [Example 73, (2r,4s)-2-((4-(1-(4-fluoro-2-(trifluoromethyl)phenoxy)ethyl)piperidin-1-yl)carbonyl)-5-azaspiro[3.4]octan-6-one] | –
7 | 101 | CC(Oc1ccc(F)c(F)c1F)C1CCN(C(=O)[C@H]2C[C@]3(CCC(=O)N3)C2)CC1 (some centres unmarked) [Example 74, (2r,4s)-2-((4-(1-(2,3.4-trifluorophenoxy)ethyl)piperidin-1-yl)carbonyl)-5-azaspiro[3.4]octan-6-one] | –
8 | 100 | O=C1N[C@]2(CO1)C[C@H](C(=O)N1CC(COc3c(Cl)cc(F)cc3Cl)C1)C2 [Example 75, (2s,4s)-2-((3-((2,6-dichloro-4-fluorophenoxy)methyl)azetidin-1-yl)carbonyl)-7-oxa-5-azaspiro[3.4]octan-6-one] | –
9 | 100 | O=C1N[C@]2(CO1)C[C@H](C(=O)N1CC(COc3ccc(C(F)(F)F)cc3Cl)C1)C2 [Example 76, (2s,4s)-2-((3-((2-chloro-4-(trifluoromethyl)phenoxy)methyl)azetidin-1-yl)carbonyl)-7-oxa-5-azaspiro[3.4]octan-6-one] | –
10 | 100 | O=C1N[C@]2(CO1)C[C@H](C(=O)N1CC(COc3ccc(Cl)cc3Cl)C1)C2 [Example 79, (2s,4s)-2-((3-((2,4-dichlorophenoxy)methyl)azetidin-1-yl)carbonyl)-7-oxa-5-azaspiro[3.4]octan-6-one] | –
11 | 101 | CC(Oc1ccc(F)c(F)c1F)C1CCN(C(=O)[C@H]2C[C@]3(COC(=O)N3)C2)CC1 (some centres unmarked) [Example 80, (2s,4s)-2-((4-(1-(2,3,4-trifluorophenoxy)ethyl)piperidin-1-yl)carbonyl)-7-oxa-5-azaspiro[3.4]octan-6-one] | –
12 | – | CC(Oc1ccc(F)c(F)c1F)C1CCN(C(=O)[C@H]2C[C@]3(COC(=O)N3)C2)CC1 (some centres unmarked) [Example 81, (2s,4s)-2-((4-(1-(2,3,4-trifluorophenoxy)ethyl)piperidin-1-yl)carbonyl)-7-oxa-5-azaspiro[3.4]octan-6-one] | % inhibition (10 μM) (10 µM): 100%
13 | – | CC(Oc1ccc(F)c(F)c1F)C1CCN(C(=O)[C@H]2C[C@]3(COC(=O)N3)C2)CC1 (some centres unmarked) [Example 82, (2s,4s)-2-((4-(1-(2,3,4-trifluorophenoxy)ethyl)piperidin-1-yl)carbonyl)-7-oxa-5-azaspiro[3.4]octan-6-one] | % inhibition (10 μM) (10 µM): 100%
14 | 100 | O=C1N[C@]2(CO1)C[C@H](C(=O)N1CC(COc3cc(C(F)(F)F)cc(C(F)(F)F)c3)C1)C2 [Example 83, (2s,4s)-2-((3-((3,5-bis(trifluoromethyl)phenoxy)methyl)azetidin-1-yl)carbonyl)-7-oxa-5-azaspiro[3.4]octan-6-one] | –
15 | 100 | CC(Oc1c(F)cc(F)cc1F)C1CCN(C(=O)[C@H]2C[C@]3(COC(=O)N3)C2)CC1 (some centres unmarked) [Example 85, (2s,4s)-2-((4-(1-(2,4,6-trifluorophenoxy)ethyl)piperidin-1-yl)carbonyl)-7-oxa-5-azaspiro[3.4]octan-6-one] | –
16 | 100 | CCc1cc(OCC2CN(C(=O)[C@H]3C[C@]4(COC(=O)N4)C3)C2)c(F)cc1C(F)(F)F [Example 86, (2s,4s)-2-((3-((5-ethyl-2-fluoro-4-(trifluoromethyl)phenoxy)methyl)azetidin-1-yl)carbonyl)-7-oxa-5-azaspiro[3.4]octan-6-one] | –
17 | – | CC(Oc1c(F)cc(F)cc1F)C1CCN(C(=O)[C@H]2C[C@]3(COC(=O)N3)C2)CC1 (some centres unmarked) [Example 87, (2s,4s)-2-((4-(1-(2,4,6-trifluorophenoxy)ethyl)piperidin-1-yl)carbonyl)-7-oxa-5-azaspiro[3.4]octan-6-one] | % inhibition (10 μM): 100%
18 | – | CC(Oc1c(F)cc(F)cc1F)C1CCN(C(=O)[C@H]2C[C@]3(COC(=O)N3)C2)CC1 (some centres unmarked) [Example 88, (2s,4s)-2-((4-(1-(2,4,6-trifluorophenoxy)ethyl)piperidin-1-yl)carbonyl)-7-oxa-5-azaspiro[3.4]octan-6-one] | % inhibition (10 μM): 100%
19 | 100 | O=C1N[C@]2(CO1)C[C@H](C(=O)N1CC(CC(F)(F)c3ccc(C(F)(F)F)cc3F)C1)C2 [Example 91, (2s,4s)-2-((3-(2,2-difluoro-2-(2-fluoro-4-(trifluoromethyl)phenyl)ethyl)azetidin-1-yl)carbonyl)-7-oxa-5-azaspiro[3.4]octan-6-one] | –
20 | 100 | Cc1cc(Cl)ccc1COC1CN(C(=O)[C@H]2C[C@]3(COC(=O)N3)C2)C1 [Example 92, (2s,4s)-2-((3-((4-chloro-2-methylbenzyl)oxy)azetidin-1-yl)carbonyl)-7-oxa-5-azaspiro[3.4]octan-6-one] | –
21 | 100 | Cc1ccc(COC2CN(C(=O)[C@H]3C[C@]4(COC(=O)N4)C3)C2)c(F)c1F [Example 94, (2s,4s)-2-((3-((2,3-difluoro-4-methylbenzyl)oxy)azetidin-1-yl)carbonyl)-7-oxa-5-azaspiro[3.4]octan-6-one] | –
22 | 100 | O=C1N[C@]2(CO1)C[C@H](C(=O)N1CC(OCc3ccc(C(F)(F)F)c(F)c3F)C1)C2 [Example 96, (2s,4s)-2-((3-((2,3-difluoro-4-(trifluoromethyl)benzyl)oxy)azetidin-1-yl)carbonyl)-7-oxa-5-azaspiro[3.4]octan-6-one] | –
23 | 100 | O=C1N[C@]2(CO1)C[C@H](C(=O)N1CC(CC(F)(F)c3ccc(C(F)(F)F)c(F)c3)C1)C2 [Example 99, (2s,4s)-2-((3-(2,2-difluoro-2-(3-fluoro-4-(trifluoromethyl)phenyl)ethyl)azetidin-1-yl)carbonyl)-7-oxa-5-azaspiro[3.4]octan-6-one] | –

Reference: patent US10323026B2, “Heterocyclic compound” (Takeda Pharmaceutical Company Limited, priority 2016, dated 2019)
